Results reported in patent US7482024B2, “Compositions comprising an active agent” (Nektar Therapeutics, priority 1999, dated 2009).
Where “and” joins values, the source holds several entries; their conditions need not be identical. Equal entries are not always repeated. Entries after “also recorded” stand apart in the source; their conditions may differ.

Assay: Surface tension measurement, Kruss Processor Tensiometer-K12, Wilhelmy-method (plate method)
Format: physicochemical
Details: for Surface tension, 25° C. Extrapolated Values at 2 mg/ml / Surface tension, 45° C. Extrapolated Values at 2 mg/ml: extrapolated to 2 mg/ml
Procedure: A “surface active” material is one having surface activity (measured, e.g., by surface tensiometry), as characterized by its ability to reduce the surface tension of the liquid in which it is dissolved. […] A peptide that is more surface active than another peptide is one which decreases the surface tension of water to a greater extent, when present in the liquid at the same concentration and measured under the same set of experimental conditions. The surface tension of several representative dipeptides, tripeptides, and proteins was measured at 25° C. and 45° C. to provide an indication of their relative surface activities. Surface tension measurements were carried out using a Kruss Processor Tensiometer-K12 with the Wilhelmy-method (Plate method). Solutions were prepared by dissolving either 0.05%, 0.2%, or 0.6% peptide/protein (by weight) along with an appropriate amount of raffinose by weight to provide final solutions having a 1.0% by weight solids content. Surface tension measurements at 25° C. and 45° C. were then obtained for the test solutions at three different time points (49 seconds, 100 seconds and 194 seconds).

[1] = 0.2% (wt/vol) plus raffinose to 1% total solids, 25° C., 49 s
[2] = 0.2% (wt/vol) plus raffinose to 1% total solids, 25° C., 100 s
[3] = 0.2% (wt/vol) plus raffinose to 1% total solids, 25° C., 194 s
[4] = Table 2: 0.20% (wt/vol) plus 0.80% raffinose, 25° C., 49 s
[5] = Table 2: 0.20% (wt/vol) plus 0.80% raffinose, 25° C., 100 s
[6] = Table 2: 0.20% (wt/vol) plus 0.80% raffinose, 25° C., 194 s

Surface tension (ST) [1]	Surface tension (ST) [2]	Surface tension (ST) [3]	Surface tension (ST) [4]	Surface tension (ST) [5]	Surface tension (ST) [6]	Surface tension, 25° C. Extrapolated Values at 2 mg/ml (25° C.) [mN/m]	Surface tension, 45° C. Extrapolated Values at 2 mg/ml (45° C.) [mN/m]	Substance	Surface activity (ability to lower the surface tension of water), in words	further results
72 mN/m and 72.1 mN/m	72 mN/m and 71.9 mN/m and 72.1 mN/m	71.9 mN/m and 72.1 mN/m	–	–	–	–	–	di-alanine [reference compound]	–	–
–	–	–	67.7 mN/m and 67.6 mN/m and 68 mN/m	71.6 mN/m and 67.2 mN/m and 67.8 mN/m	71.6 mN/m and 67 mN/m and 67.6 mN/m	–	–	di-isoleucine [reference compound]	not particularly effective at lowering the surface tension of water	–
–	–	–	71.7 mN/m and 71.6 mN/m	71.6 mN/m	71.6 mN/m	–	–	di-valine [reference compound]	not particularly effective at lowering the surface tension of water	–
58.4 mN/m and 58.7 mN/m and 60.1 mN/m	58.1 mN/m and 58.3 mN/m and 59.8 mN/m	57.9 mN/m and 58.2 mN/m and 59.7 mN/m	–	–	–	60.4	52.4	dileucine [di-leucine]	highly surface active; also recorded: more effective than any of the other dimers examined in reducing the surface tension of water	Surface tension, Actual MEAN (1.51 mg/ml, 25° C.): 61.5 mN/m; Surface tension, Actual MEAN (1.51 mg/ml, 45° C.): 53.2 mN/m; Surface tension, Actual MEAN (4.53 mg/ml, 25° C.): 54.9 mN/m; Surface tension, Actual MEAN (4.53 mg/ml, 45° C.): 48.2 mN/m; Surface tension, Actual MEAN (13.60 mg/ml, 25° C.): 46.6 mN/m; Surface tension, Actual MEAN (13.60 mg/ml, 45° C.): 42.7 mN/m
–	–	–	–	–	–	46.6	49.8	leu-leu-ala	–	Surface tension, Actual MEAN (0.76 mg/ml, 25° C.): 60.7 mN/m; Surface tension, Actual MEAN (0.76 mg/ml, 45° C.): 58.3 mN/m; Surface tension, Actual MEAN (2.27 mg/ml, 25° C.): 43.5 mN/m; Surface tension, Actual MEAN (2.27 mg/ml, 45° C.): 48.2 mN/m; Surface tension, Actual MEAN (6.80 mg/ml, 25° C.): 39.9 mN/m; Surface tension, Actual MEAN (6.80 mg/ml, 45° C.): 48.4 mN/m
–	–	–	–	–	–	48.3	46.2	leu-phe-leu	–	Surface tension, Actual MEAN (0.68 mg/ml, 25° C.): 54.7 mN/m; Surface tension, Actual MEAN (0.68 mg/ml, 45° C.): 53.6 mN/m; Surface tension, Actual MEAN (2.03 mg/ml, 25° C.): 48.3 mN/m; Surface tension, Actual MEAN (2.03 mg/ml, 45° C.): 46.2 mN/m; Surface tension, Actual MEAN (6.10 mg/ml, 25° C.): 41.5 mN/m; Surface tension, Actual MEAN (6.10 mg/ml, 45° C.): 39.3 mN/m
–	–	–	–	–	–	47.9	44.7	leu-tyr-leu	the most surface active of the trimers	Surface tension, Actual MEAN (0.32 mg/ml, 25° C.): 58.4 mN/m; Surface tension, Actual MEAN (0.32 mg/ml, 45° C.): 55.4 mN/m; Surface tension, Actual MEAN (0.97 mg/ml, 25° C.): 51.6 mN/m; Surface tension, Actual MEAN (0.97 mg/ml, 45° C.): 49.1 mN/m; Surface tension, Actual MEAN (2.90 mg/ml, 25° C.): 44.7 mN/m; Surface tension, Actual MEAN (2.90 mg/ml, 45° C.): 40.8 mN/m
48.7 mN/m	48.6 mN/m	48.5 mN/m	–	–	–	–	–	salmon calcitonin [sal. Calcitonin, reference compound]	highly surface active	Surface tension (ST) (0.2% (wt/vol) plus raffinose to 1% total solids, 25° C., 49 s, listed as sal. calcitonin): 48.4 mN/m; Surface tension (ST) (0.2% (wt/vol) plus raffinose to 1% total solids, 25° C., 100 s, listed as sal. calcitonin): 48.4 mN/m; Surface tension (ST) (0.2% (wt/vol) plus raffinose to 1% total solids, 25° C., 194 s, listed as sal. calcitonin): 48.4 mN/m
–	–	–	68.8 mN/m and 68.7 mN/m	68.8 mN/m and 68.7 mN/m	68.8 mN/m and 68.7 mN/m	–	–	tri-valine [reference compound]	not particularly effective at lowering the surface tension of water	–
